Values joined by “and” are separate entries in the source; they are usually repeats but may differ in a detail not shown here. Equal entries are not always repeated. Active and inactive are the calls of the source. How the calls were made is not given here.
Test system: rodent lifetime carcinogenesis bioassay, tumor incidence TD50
Test: carcinogenic potency in animals, long-term in vivo studies, CPDB compilation (AID 1745844)
[1] = mouse, strain B6AKF1, females, oral dosing, site: lung, lesion: adenoma, dosed 76 weeks, study length 76 weeks

CCCCOCCOCCOCc1cc2c(cc1CCC)OCO2
carcinogen call (mouse, strain B6AKF1, females, oral dosing, site: liver, lesion: hepatoma, dosed 76 weeks, study length 76 weeks): negative (inactive)
TD50 [1]: 265 mg/kg/day
carcinogen call [1]: negative (inactive)
carcinogen call (mouse, strain B6AKF1, males, oral dosing, site: any site (literature study), lesion: several types, types named in the paper, dosed 76 weeks, study length 76 weeks): negative (inactive)
carcinogen call (mouse, strain B6AKF1, males, oral dosing, site: liver, lesion: hepatoma, dosed 76 weeks, study length 76 weeks): negative (inactive)
carcinogen call (mouse, strain B6AKF1, males, oral dosing, site: lung, lesion: adenoma, dosed 76 weeks, study length 76 weeks): negative (inactive)
carcinogen call (mouse, strain B6C3F1, females, in feed, site: any site (literature study), lesion: several types, types named in the paper, dosed 112 weeks, study length 112 weeks): negative (inactive)
TD50 (mouse, strain B6C3F1, females, in feed, site: liver, lesion: hepatocellular adenoma + hepatocellular carcinoma + neoplastic nodule, dosed 112 weeks, study length 112 weeks): 3260 mg/kg/day
carcinogen call (mouse, strain B6C3F1, females, oral dosing, site: any site (literature study), lesion: one or several types, types not named, dosed 76 weeks, study length 76 weeks): negative (inactive)
TD50 (mouse, strain B6C3F1, females, oral dosing, site: any site (literature study), lesion: several types, types named in the paper, dosed 76 weeks, study length 76 weeks): 83.1 mg/kg/day
carcinogen call (mouse, strain B6C3F1, females, oral dosing, site: liver, lesion: hepatoma, dosed 76 weeks, study length 76 weeks): negative (inactive)
carcinogen call (mouse, strain B6C3F1, females, oral dosing, site: lung, lesion: several types, types named in the paper, dosed 76 weeks, study length 76 weeks): negative (inactive)
carcinogen call (mouse, strain B6C3F1, males, in feed, site: any site (literature study), lesion: several types, types named in the paper, dosed 112 weeks, study length 112 weeks): negative (inactive)
TD50 (mouse, strain B6C3F1, males, oral dosing, site: all sites, lesion: reticulum-cell sarcoma, dosed 76 weeks, study length 76 weeks): 34.8 mg/kg/day
TD50 (mouse, strain B6C3F1, males, oral dosing, site: liver, lesion: hepatoma, dosed 76 weeks, study length 76 weeks): 186 mg/kg/day (inactive) and 98.5 mg/kg/day
carcinogen call (mouse, strain B6C3F1, males, oral dosing, site: lung, lesion: several types, types named in the paper, dosed 76 weeks, study length 76 weeks): negative (inactive)
TD50 (mouse, strain Charles River CD1, females, in feed, site: liver, lesion: basophil adenoma, dosed 79 weeks, study length 79 weeks): 4540 mg/kg/day
TD50 (mouse, strain Charles River CD1, females, in feed, site: liver, lesion: eosinophilic adenoma, dosed 79 weeks, study length 79 weeks): 1120 mg/kg/day
TD50 (mouse, strain Charles River CD1, females, in feed, site: liver, lesion: hepatocellular adenoma, dosed 52 weeks, study length 52 weeks): 2380 mg/kg/day
TD50 (mouse, strain Charles River CD1, females, in feed, site: liver, lesion: hepatocellular adenoma, dosed 79 weeks, study length 79 weeks): 825 mg/kg/day
TD50 (mouse, strain Charles River CD1, females, in feed, site: liver, lesion: hepatocellular carcinoma, dosed 52 weeks, study length 52 weeks): 756 mg/kg/day
TD50 (mouse, strain Charles River CD1, females, in feed, site: liver, lesion: several types, types named in the paper, dosed 52 weeks, study length 52 weeks): 516 mg/kg/day
TD50 (mouse, strain Charles River CD1, males, in feed, site: liver, lesion: basophil adenoma, dosed 79 weeks, study length 79 weeks): 844 mg/kg/day
TD50 (mouse, strain Charles River CD1, males, in feed, site: liver, lesion: eosinophilic adenoma, dosed 79 weeks, study length 79 weeks): 355 mg/kg/day
TD50 (mouse, strain Charles River CD1, males, in feed, site: liver, lesion: hepatocellular adenoma, dosed 52 weeks, study length 52 weeks): 1060 mg/kg/day
TD50 (mouse, strain Charles River CD1, males, in feed, site: liver, lesion: hepatocellular adenoma, dosed 79 weeks, study length 79 weeks): 160 mg/kg/day
TD50 (mouse, strain Charles River CD1, males, in feed, site: liver, lesion: hepatocellular carcinoma, dosed 52 weeks, study length 52 weeks): 410 mg/kg/day
TD50 (mouse, strain Charles River CD1, males, in feed, site: liver, lesion: hepatocellular carcinoma, dosed 79 weeks, study length 79 weeks): 3470 mg/kg/day
TD50 (mouse, strain Charles River CD1, males, in feed, site: liver, lesion: mixed cell adenoma, dosed 79 weeks, study length 79 weeks): 2630 mg/kg/day
TD50 (mouse, strain Charles River CD1, males, in feed, site: liver, lesion: several types, types named in the paper, dosed 52 weeks, study length 52 weeks): 229 mg/kg/day
TD50 (rat, strain Charles River CD (Sprague-Dawley), females, in feed, site: liver, lesion: hepatocellular carcinoma, dosed 104 weeks, study length 104 weeks): 12800 mg/kg/day (inactive)
TD50 (rat, strain Charles River CD (Sprague-Dawley), males, in feed, site: liver, lesion: hepatocellular adenoma, dosed 104 weeks, study length 104 weeks): 12800 mg/kg/day (inactive)
TD50 (rat, strain Charles River CD (Sprague-Dawley), males, in feed, site: liver, lesion: hepatocellular carcinoma, dosed 104 weeks, study length 104 weeks): 78500 mg/kg/day (inactive)
carcinogen call (rat, strain F344/DuCrj, females, in feed, site: any site (literature study), lesion: several types, types named in the paper, dosed 104 weeks, study length 110 weeks): negative (inactive)
TD50 (rat, strain F344/DuCrj, females, in feed, site: liver, lesion: cholangioma, cystic, dosed 96 weeks, study length 96 weeks): 19100 mg/kg/day
TD50 (rat, strain F344/DuCrj, females, in feed, site: liver, lesion: hepatocellular adenoma, dosed 96 weeks, study length 96 weeks): 2460 mg/kg/day
TD50 (rat, strain F344/DuCrj, females, in feed, site: liver, lesion: hepatocellular carcinoma, dosed 96 weeks, study length 96 weeks): 2220 mg/kg/day
TD50 (rat, strain F344/DuCrj, females, in feed, site: liver, lesion: hepatocellular tumor, dosed 96 weeks, study length 96 weeks): 977 mg/kg/day
carcinogen call (rat, strain F344/DuCrj, females, in feed, site: liver, lesion: neoplastic nodule, dosed 104 weeks, study length 110 weeks): negative (inactive)
carcinogen call (rat, strain F344/DuCrj, males, in feed, site: any site (literature study), lesion: several types, types named in the paper, dosed 104 weeks, study length 110 weeks): negative (inactive)
TD50 (rat, strain F344/DuCrj, males, in feed, site: liver, lesion: cholangioma, cystic, dosed 95 weeks, study length 95 weeks): 30200 mg/kg/day
TD50 (rat, strain F344/DuCrj, males, in feed, site: liver, lesion: hepatocellular adenoma, dosed 95 weeks, study length 95 weeks): 1400 mg/kg/day
TD50 (rat, strain F344/DuCrj, males, in feed, site: liver, lesion: hepatocellular carcinoma, dosed 95 weeks, study length 95 weeks): 806 mg/kg/day
TD50 (rat, strain F344/DuCrj, males, in feed, site: liver, lesion: hepatocellular carcinoma, dosed 104 weeks, study length 110 weeks): 20100 mg/kg/day (inactive)
TD50 (rat, strain F344/DuCrj, males, in feed, site: liver, lesion: hepatocellular tumor, dosed 95 weeks, study length 95 weeks): 468 mg/kg/day
TD50 (rat, strain F344/DuCrj, males, in feed, site: liver, lesion: neoplastic nodule, dosed 104 weeks, study length 110 weeks): 7690 mg/kg/day (inactive)
TD50 (rat, strain Fischer 344, females, in feed, site: all sites, lesion: lymphoma, dosed 107 weeks, study length 107 weeks): 1180 mg/kg/day (inactive)
TD50 (rat, strain Fischer 344, females, in feed, site: any site (literature study), lesion: several types, types named in the paper, dosed 107 weeks, study length 107 weeks): 7820 mg/kg/day
carcinogen call (rat, strain Fischer 344, males, in feed, site: any site (literature study), lesion: several types, types named in the paper, dosed 107 weeks, study length 107 weeks): negative (inactive)
TD50 (rat, strain Wistar, both sexes, in feed, site: liver, lesion: hepatocellular carcinoma, dosed 95 weeks, study length 104 weeks): 26100 mg/kg/day (inactive)
TD50 (rat, strain Wistar, both sexes, in feed, site: liver, lesion: hepatoma, dosed 95 weeks, study length 104 weeks): 22500 mg/kg/day (inactive)

C/C1=C\C=C(\C(C)C)[C@@H](O)C/C(C)=C/CC/C(C)=C/CC1
carcinogen call (mouse, strain C3H/HeN, males, in feed, site: liver, lesion: hepatoma, dosed 65 weeks, study length 65 weeks): negative (inactive)

Cc1cc(C)nc(NS(=O)(=O)c2ccc(N)cc2)n1
TD50 (mouse, strain B6C3F1, females, in feed, site: liver, lesion: hepatocellular adenoma, dosed 78 weeks, study length 78 weeks): 2820 mg/kg/day
TD50 (mouse, strain B6C3F1, females, in feed, site: liver, lesion: hepatocellular adenoma, dosed 104 weeks, study length 104 weeks): 12300 mg/kg/day
TD50 (mouse, strain B6C3F1, females, in feed, site: liver, lesion: hepatocellular carcinoma, dosed 104 weeks, study length 104 weeks): 16500 mg/kg/day
TD50 (mouse, strain B6C3F1, females, in feed, site: liver, lesion: several types, types named in the paper, dosed 104 weeks, study length 104 weeks): 8740 mg/kg/day
TD50 (mouse, strain B6C3F1, females, in feed, site: lung, lesion: alveolar/bronchiolar carcinoma, dosed 52 weeks, study length 52 weeks): 3100 mg/kg/day
TD50 (mouse, strain B6C3F1, females, in feed, site: lung, lesion: alveolar/bronchiolar carcinoma, dosed 104 weeks, study length 104 weeks): 12700 mg/kg/day
TD50 (mouse, strain B6C3F1, females, in feed, site: thyroid gland, lesion: follicular-cell adenoma, dosed 78 weeks, study length 78 weeks): 618 mg/kg/day
TD50 (mouse, strain B6C3F1, females, in feed, site: thyroid gland, lesion: follicular-cell adenoma, dosed 104 weeks, study length 104 weeks): 2160 mg/kg/day
TD50 (mouse, strain B6C3F1, females, in feed, site: thyroid gland, lesion: follicular-cell carcinoma, dosed 104 weeks, study length 104 weeks): 54800 mg/kg/day
TD50 (mouse, strain B6C3F1, females, in feed, site: thyroid gland, lesion: several types, types named in the paper, dosed 104 weeks, study length 104 weeks): 2060 mg/kg/day
TD50 (mouse, strain B6C3F1, males, in feed, site: liver, lesion: hepatocellular adenoma, dosed 104 weeks, study length 104 weeks): 14900 mg/kg/day
TD50 (mouse, strain B6C3F1, males, in feed, site: liver, lesion: several types, types named in the paper, dosed 104 weeks, study length 104 weeks): 11700 mg/kg/day
TD50 (mouse, strain B6C3F1, males, in feed, site: thyroid gland, lesion: follicular-cell adenoma, dosed 78 weeks, study length 78 weeks): 3370 mg/kg/day
TD50 (mouse, strain B6C3F1, males, in feed, site: thyroid gland, lesion: follicular-cell adenoma, dosed 104 weeks, study length 104 weeks): 1220 mg/kg/day
TD50 (mouse, strain B6C3F1, males, in feed, site: thyroid gland, lesion: follicular-cell carcinoma, dosed 104 weeks, study length 104 weeks): 72100 mg/kg/day
TD50 (mouse, strain B6C3F1, males, in feed, site: thyroid gland, lesion: several types, types named in the paper, dosed 104 weeks, study length 104 weeks): 1190 mg/kg/day

CCc1cc(C(N)=S)ccn1
TD50 (mouse, strain B6C3F1, females, in feed, site: any site (literature study), lesion: several types, types named in the paper, dosed 78 weeks, study length 104 weeks): 450 mg/kg/day (inactive)
carcinogen call (mouse, strain B6C3F1, males, in feed, site: any site (literature study), lesion: several types, types named in the paper, dosed 78 weeks, study length 104 weeks): negative (inactive)
TD50 (mouse, strain BALB/c, females, by gavage, site: liver, lesion: papillary carcinoma, dosed 50 weeks, study length 69 weeks): 240 mg/kg/day (inactive)
TD50 (mouse, strain BALB/c, females, by gavage, site: lung, lesion: adenoma, dosed 50 weeks, study length 69 weeks): 124 mg/kg/day (inactive)
TD50 (mouse, strain BALB/c, females, by gavage, site: thyroid gland, lesion: carcinoma, dosed 50 weeks, study length 69 weeks): 69.3 mg/kg/day
carcinogen call (rat, strain Fischer 344, females, in feed, site: any site (literature study), lesion: several types, types named in the paper, dosed 78 weeks, study length 104 weeks): negative (inactive)
TD50 (rat, strain Fischer 344, females, in feed, site: liver, lesion: hepatocellular adenoma + hepatocellular carcinoma + neoplastic nodule, dosed 78 weeks, study length 104 weeks): 508 mg/kg/day
carcinogen call (rat, strain Fischer 344, males, in feed, site: any site (literature study), lesion: several types, types named in the paper, dosed 78 weeks, study length 103 weeks): negative (inactive)
TD50 (rat, strain Fischer 344, males, in feed, site: liver, lesion: hepatocellular adenoma + hepatocellular carcinoma + neoplastic nodule, dosed 78 weeks, study length 103 weeks): 623 mg/kg/day

— PubChem BioAssay AID1745844 (Carcinogenic Potency Database (CPDB), 2022)
